From patent publication US9988390B2, “Pyrimidone derivatives and their use in the treatment, amelioration or prevention of a viral disease” (F. Hoffmann-La Roche AG, priority 2015, dated 2018)

Each compound was assayed on influenza A virus (A/WSN/33 NanoLuc reporter virus) in A549 cells (assay: microbe, parasite or virus in culture). Conditions: A549, 24 h, read-out: IC50 values of viral replication inhibition in a cell-based Luciferase Reporter Assay (LRA).
Type: cell-based

For `COc1nc(=O)c(O)c2n1[C@@H]([C@H](c1ccccc1)c1ccc(Cl)cc1)CN(C(C)C)C2=O` [Ia-72, (4S)-4-[(R)-(4-Chlorophenyl)-phenyl-methyl]-9-hydroxy-2-isopropyl-6-methoxy-3,4-dihydropyrazino[1,2-c]pyrimidine-1,8-dione], which IC50 is on record?
The IC50 was 0.04 µM.

Which IC50 does the source give for `COc1nc(=O)c(O)c2n1C(C(c1ccc(Cl)cc1)c1ccc(Cl)cc1)CN(C(C)C)C2=O` (stereo not shown) [Ia-63, 4-[Bis(4-chlorophenyl)methyl]-9-hydroxy-2-isopropyl-6-methoxy-3,4-dihydropyrazino[1,2-c]pyrimidine-1,8-dione] here?
Its IC50 is 0.302 µM.

`CSc1nc(=O)c(O)c2n1[C@@H](C1c3ccccc3CCc3ccccc31)CN(C(C)C)C2=O` [Ia-30, (4S)-4-(6,11-Dihydro-5H-dibenzo[2,1-b:1′,2′-e][7]annulen-11-yl)-9-hydroxy-2-isopropyl-6-methylsulfanyl-3,4-dihydropyrazino[1,2-c]pyrimidine-1,8-dione] was tested. Which IC50 did it give?
Its IC50 is 0.017 µM.

`CCOc1nc(=O)c(O)c2n1[C@@H](C1c3ccccc3CCc3ccccc31)CN(C(C)C)C2=O` [Example 1a-12, (4S)-4-(10,11-Dihydro-5H-dibenzo[a,d][7]annulen-5-yl)-6-ethoxy-9-hydroxy-2-(propan-2-yl)-3,4-dihydro-2H-pyrazino[1,2-c]pyrimidine-1,8-dione] was tested. Which IC50 did it give?
The IC50 was 0.024 µM.

Which IC50 does the source give for `CC(C)Nc1nc(=O)c(O)c2n1[C@@H](C1c3ccccc3CCc3ccccc31)CN(C(C)C)C2=O` [Ia-36, (4S)-4-(6,11-Dihydro-5H-dibenzo[2,1-b:1′,2′-e][7]annulen-11-yl)-9-hydroxy-2-isopropyl-6-(isopropylamino)-3,4-dihydropyrazino[1,2-c]pyrimidine-1,8-dione] here?
Its IC50 is 0.103 µM.

`CC(C)N1C[C@H](C2c3ccccc3CCc3ccccc32)n2c(NCC(F)(F)F)nc(=O)c(O)c2C1=O` [Ia-34, (4S)-4-(6,11-Dihydro-5H-dibenzo[2,1-b:1′,2′-e][7]annulen-11-yl)-9-hydroxy-2-isopropyl-6-(2,2,2-trifluoroethylamino)-3,4-dihydropyrazino[1,2-c]pyrimidine-1,8-dione] was tested. Which IC50 did it give?
Its IC50 is 0.05 µM.

Which IC50 does the source give for `CCOc1nc(=O)c(O)c2n1[C@@H](C(c1ccccc1)c1ccccc1)CN(C(C)C)C2=O` [Example 1a-7, (4S)-4-Benzhydryl-6-ethoxy-9-hydroxy-2-isopropyl-3,4-dihydropyrazino[1,2-c]-pyrimidine-1,8-dione] here?
Its IC50 is 0.069 µM.

`CC(=O)Nc1nc(=O)c(O)c2n1[C@@H](C(c1ccccc1)c1ccccc1)CN(C(C)C)C2=O` [Example 1a-16, N-[(4S)-4-Benzhydryl-9-hydroxy-2-isopropyl-1,8-dioxo-3,4-dihydropyrazino[1,2-c]pyrimidin-6-yl]acetamide] was tested. Which IC50 did it give?
Its IC50 is 0.023 µM.

How did the IC50 turn out when `CC(C)N1C[C@H](C2c3ccccc3CCc3ccccc32)n2cnc(=O)c(O)c2C1=O` [Ia-29, (4S)-4-(6,11-Dihydro-5H-dibenzo[2,1-b:1′,2′-e][7]annulen-11-yl)-9-hydroxy-2-isopropyl-3,4-dihydropyrazino[1,2-c]pyrimidine-1,8-dione] was run?
Its IC50 is 0.022 µM.

`COc1nc(=O)c(O)c2n1C(C(c1ccccc1)c1ccccc1Br)CN(C)C2=O` (stereo not shown) [Ia-70, 4-[(2-Bromophenyl)-phenyl-methyl]-9-hydroxy-6-methoxy-2-methyl-3,4-dihydropyrazino[1,2-c]pyrimidine-1,8-dione] was tested. Which IC50 did it give?
Its IC50 is 0.027 µM.

Which IC50 does the source give for `COc1nc(=O)c(O)c2n1[C@@H](C1c3ccccc3CCc3ccccc31)CN(C)C2=O` [Example 1a-9, (4S)-4-(10,11-Dihydro-5H-dibenzo[a,d][7]annulen-5-yl)-9-hydroxy-6-methoxy-2-methyl-3,4-dihydro-2H-pyrazino[1,2-c]pyrimidine-1,8-dione] here?
The IC50 was 0.006 µM.

Which IC50 does the source give for `CC(C)N1C[C@H](C(c2ccccc2)c2ccccc2)n2c(CO)nc(=O)c(O)c2C1=O` [Ia-74, (4S)-4-Benzhydryl-9-hydroxy-6-(hydroxymethyl)-2-isopropyl-3,4-dihydropyrazino[1,2-c]pyrimidine-1,8-dione] here?
Its IC50 is 0.125 µM.

Same assay, conditions: A549, isomers identified by X-ray analysis, read-out: IC50

How did the IC50 turn out when `COc1nc(=O)c(O)c2n1[C@@H]([C@@H]1c3ccccc3CSc3ccccc31)CN(C(C)C)C2=O` (single isomer, unassigned) [Example 16] was run?
The IC50 was 0.004 µM.
